Experimental data taken from patent US8507509B2, “Saturated and insaturated bi- or tricyclic aryloxyacetamine derivatives and their use as fungicides” (Syngenta Crop Protection LLC, priority 2007, dated 2013).

Columns and labels:
Septoria tritici = Septoria tritici (leaf blotch), liquid culture growth inhibition in nutrient broth; type: cell-based; conditions: Zymoseptoria tritici; 200 ppm; PDB broth, 24 C; inhibition of growth determined photometrically after 72 hrs; read-out: control of fungal infection, Septoria tritici
[1] = test system: Puccinia recondita f.sp. tritici; assay: Puccinia recondita f.sp. tritici (wheat brown rust), wheat leaf segment assay, preventive; type: in vivo; conditions: foliar, 216 h, 200 ppm, wheat leaf segments, assessed nine days after inoculation, read-out: control of fungal infection, Puccinia recondite f.sp. tritici
[2] = test system: Erysiphe graminis f.sp. tritici; assay: Erysiphe graminis f.sp. tritici (wheat powdery mildew), wheat leaf segment assay, preventive; type: in vivo; conditions: Blumeria graminis, foliar, 96 h; 200 ppm; wheat leaf segments; assessed four days after inoculation; read-out: control of fungal infection, Etysiphe graminis f.sp. tritici
Phytophthora infestans = assay: whole plant or invertebrate; type: in vivo; conditions: in Solanum lycopersicum, foliar, 96 h, read-out: control of fungal infection, Phytophthora infestans
Plasmopara viticola = Plasmopara viticola (downy mildew of grapevine), grapevine leaf disk assay, preventive; type: in vivo; conditions: foliar, 168 h, 200 ppm, grapevine leaf disks, assessed seven days after inoculation, read-out: control of fungal infection, Plasmopara viticola
Septoria nodorum = Septoria nodorum (wheat glume blotch), wheat leaf segment assay, preventive; type: in vivo; conditions: Parastagonospora nodorum, foliar, 96 h; 200 ppm; wheat leaf segments; assessed four days after inoculation; read-out: control of fungal infection, Septoria nodorum
Pythium ultimum = Pythium ultimum (Damping off), liquid culture growth inhibition in potato dextrose broth; type: cell-based; conditions: Globisporangium ultimum; 20 ppm; potato dextrose broth, 24° C.; inhibition of growth determined photometrically after 48 hours; read-out: control of fungal infection, Pythium ultimum
Botrytis cinerea = Botrytis cinerea (grey mould), bean leaf disk assay, preventive; type: in vivo; conditions: foliar, 96 h, 200 ppm, bean leaf disks, assessed four days after inoculation, read-out: control of fungal infection, Botrytis cinerea

CCC(Oc1cc(C)c2ncc(I)cc2c1)C(=O)NC(C)(C)C=NOC (centres unmarked) [Compound No. 5, 2-(3-Iodo-8-methyl-quinolin-6-yloxy)-N-(2-methoxyimino-1,1-dimethyl-ethyl)-butyramide]
≥ 60%: inhibition of growth at 200 ppm (Septoria tritici) | pest or weed control at 200 ppm [1] | pest or weed control at 200 ppm [2] | pest or weed control at 200 ppm (Phytophthora infestans) | pest or weed control at 200 ppm (Plasmopara viticola) | pest or weed control at 200 ppm (Septoria nodorum)

C=CCON=CC(C)(C)NC(=O)C(Oc1ccc2ncc(Br)cc2c1)SC (centres unmarked) [Compound No. 13, N-(2-Allyloxyimino-1,1-dimethyl-ethyl)-2-(3-bromo-quinolin-6-yloxy)-2-methylsulfanyl-acetamide]
≥ 60%: inhibition of growth at 200 ppm (Septoria tritici) | pest or weed control at 200 ppm [2] | pest or weed control at 200 ppm (Phytophthora infestans) | pest or weed control at 200 ppm (Plasmopara viticola) | inhibition of growth at 20 ppm (Pythium ultimum) | pest or weed control at 200 ppm (Botrytis cinerea)

C=CCON=CCC(C)(C)NC(=O)C(Oc1cc(C)c2ncc(I)cc2c1)SC (centres unmarked) [Compound No. 40, N-(3-Allyloxyimino-1,1-dimethyl-propyl)-2-(3-iodo-8-methyl-quinolin-6-yloxy)-2-methylsulfanyl-acetamide]
≥ 60%: inhibition of growth at 200 ppm (Septoria tritici) | pest or weed control at 200 ppm (Plasmopara viticola) | pest or weed control at 200 ppm (Botrytis cinerea)

CCC(Oc1ccc2ncc(I)cc2c1)C(=O)NC(C)(C=NOC)COC (centres unmarked) [Compound No. 68, 2-(3-Iodo-quinolin-6-yloxy)-N-(2-methoxyimino-1-methoxymethyl-1-methyl-ethyl]-butyramide]
≥ 60%: inhibition of growth at 200 ppm (Septoria tritici) | pest or weed control at 200 ppm [2] | pest or weed control at 200 ppm (Phytophthora infestans) | pest or weed control at 200 ppm (Plasmopara viticola) | pest or weed control at 200 ppm (Septoria nodorum) | pest or weed control at 200 ppm (Botrytis cinerea)

CON=CC(C)(C)NC(=O)C(OC)Oc1ccc2ncc(C#C[Si](C)(C)C)cc2c1 (centres unmarked) [Compound No. 74, 2-Methoxy-N-(2-methoxyimino-1,1-dimethyl-ethyl)-2-(3-trimethylsilanylethynyl-quinolin-6-yloxy)-acetamide]
≥ 60%: inhibition of growth at 200 ppm (Septoria tritici) | pest or weed control at 200 ppm [2] | pest or weed control at 200 ppm (Phytophthora infestans) | pest or weed control at 200 ppm (Plasmopara viticola) | inhibition of growth at 20 ppm (Pythium ultimum) | pest or weed control at 200 ppm (Botrytis cinerea)

CON=CC(C)(C)NC(=O)C(OC)Oc1cc(C)c2ncc(C#C[Si](C)(C)C)cc2c1 (centres unmarked) [Compound No. 75, 2-Methoxy-N-(2-methoxyimino-1,1-dimethyl-ethyl)-2-(8-methyl-3-trimethylsilanylethynyl-quinolin-6-yloxy)-acetamide]
≥ 60%: pest or weed control at 200 ppm [2] | pest or weed control at 200 ppm (Phytophthora infestans) | pest or weed control at 200 ppm (Plasmopara viticola) | pest or weed control at 200 ppm (Septoria nodorum) | pest or weed control at 200 ppm (Botrytis cinerea)

CON=CC(C)(C)NC(=O)C(Oc1cc(Cl)c2sccc2c1)SC (centres unmarked) [Compound No. 83, 2-(7-Chloro-benzo[b]thiophen-5-yloxy)-N-(2-methoxyimino-1,1-dimethyl-ethyl)-2-methylsulfanyl-acetamide]
≥ 60%: inhibition of growth at 200 ppm (Septoria tritici) | pest or weed control at 200 ppm (Plasmopara viticola) | pest or weed control at 200 ppm (Botrytis cinerea)

CON=CC(C)(C)NC(=O)C(Oc1cc(C)c2sccc2c1)SC (centres unmarked) [Compound No. 84, N-(2-methoxyimino-1,1-dimethyl-ethyl)-2-(7-methyl-benzo[b]thiophen-5-yloxy)-2-methylsulfanyl-acetamide]
≥ 60%: inhibition of growth at 200 ppm (Septoria tritici) | pest or weed control at 200 ppm (Plasmopara viticola) | pest or weed control at 200 ppm (Botrytis cinerea)

CON=CC(C)(C)NC(=O)C(Oc1cc(C)c2ccc(Br)cc2c1)SC (centres unmarked) [Compound No. 85, 2-(7-bromo-4-methyl-naphthalen-2-yloxy)-N-(2-methoxyimino-1,1-dimethyl-ethyl)-2-methylsulfanyl-acetamide]
≥ 60%: inhibition of growth at 200 ppm (Septoria tritici) | pest or weed control at 200 ppm [2] | pest or weed control at 200 ppm (Botrytis cinerea)

CON=CC(C)(C)NC(=O)C(Oc1cc(C)c2scnc2c1)SC (centres unmarked) [Compound No. 87, N-(2-methoxyimino-1,1-dimethyl-ethyl)-2-(7-methyl-benzothiazol-5-yloxy)-2-methylsulfanyl-acetamide]
≥ 60%: inhibition of growth at 20 ppm (Pythium ultimum) | pest or weed control at 200 ppm (Botrytis cinerea)

CON=CC(C)(C)NC(=O)C(Oc1cc(C)c2ncsc2c1)SC (centres unmarked) [Compound No. 89, N-(2-Methoxyimino-1,1-dimethyl-ethyl)-2-(4-methyl-benzothiazol-6-yloxy)-2-methylsulfanyl-acetamide]
≥ 60%: inhibition of growth at 200 ppm (Septoria tritici) | pest or weed control at 200 ppm [2] | pest or weed control at 200 ppm (Phytophthora infestans) | pest or weed control at 200 ppm (Plasmopara viticola) | pest or weed control at 200 ppm (Botrytis cinerea)

CSC(Oc1cc(C)c2ncc(I)cc2c1)C(=O)NC(C)(C)CC=NOC1CCCCO1 (centres unmarked) [Compound No. 96, N-[1,1-Dimethyl-3-(tetrahydro-pyran-2-yloxyimino)-propyl]-2-(3-iodo-8-methyl-quinolin-6-yloxy)-2-methylsulfanyl-acetamide]
≥ 60%: inhibition of growth at 200 ppm (Septoria tritici) | pest or weed control at 200 ppm (Plasmopara viticola) | inhibition of growth at 20 ppm (Pythium ultimum) | pest or weed control at 200 ppm (Botrytis cinerea)

CON=CC(C)(C)NC(=O)C(Oc1cc(Cl)c2ncc(I)cc2c1)SC (centres unmarked) [Compound No. 106, 2-(8-Chloro-3-iodo-quinolin-6-yloxy)-N-(2-methoxyimino-1,1-dimethyl-ethyl)-2-methylsulfanyl-acetamide]
≥ 60%: inhibition of growth at 200 ppm (Septoria tritici) | pest or weed control at 200 ppm (Plasmopara viticola) | pest or weed control at 200 ppm (Botrytis cinerea)

CON=C(Cc1ccccc1)C(C)(C)NC(=O)C(Oc1ccc2ncc(Br)cc2c1)SC (centres unmarked) [Compound No. 121, 2-(3-Bromo-quinolin-6-yloxy)-N-{2-[(E or Z)-methoxyimino]-1,1-dimethyl-3-phenyl-propyl}-2-methylsulfanyl-acetamide]
≥ 60%: inhibition of growth at 200 ppm (Septoria tritici) | pest or weed control at 200 ppm (Plasmopara viticola) | pest or weed control at 200 ppm (Botrytis cinerea)

CCON=C(Cc1ccccc1)C(C)(C)NC(=O)C(Oc1ccc2ncc(Br)cc2c1)SC (centres unmarked) [Compound No. 122, 2-(3-Bromo-quinolin-6-yloxy)-N-{2-[(E or Z)-ethoxyimino]-1,1-dimethyl-3-phenyl-propyl}-2-methylsulfanyl-acetamide]
≥ 60%: inhibition of growth at 200 ppm (Septoria tritici) | pest or weed control at 200 ppm (Plasmopara viticola) | pest or weed control at 200 ppm (Botrytis cinerea)

C#Cc1cnc2c(C)cc(OC(CC)C(=O)NC(C)(C)C=NOCC=C)cc2c1 (centres unmarked) [Compound No. 138, N-(2-Allyloxyimino-1,1-dimethyl-ethyl)-2-(3-ethynyl-8-methyl-quinolin-6-yloxy)-butyramide]
≥ 60%: inhibition of growth at 200 ppm (Septoria tritici) | pest or weed control at 200 ppm [1] | pest or weed control at 200 ppm [2] | pest or weed control at 200 ppm (Phytophthora infestans) | pest or weed control at 200 ppm (Plasmopara viticola) | inhibition of growth at 20 ppm (Pythium ultimum) | pest or weed control at 200 ppm (Septoria nodorum)

CCC(Oc1cc(C)c2ncc(Br)cc2c1)C(=O)NC(C)(C)C=NOC (centres unmarked) [Compound No. 145, 2-(3-Bromo-8-methyl-quinolin-6-yloxy)-N-(2-methoxyimino-1,1-dimethyl-ethyl)-butyramide]
≥ 60%: inhibition of growth at 200 ppm (Septoria tritici) | pest or weed control at 200 ppm [2] | pest or weed control at 200 ppm (Phytophthora infestans) | pest or weed control at 200 ppm (Plasmopara viticola) | pest or weed control at 200 ppm (Septoria nodorum) | pest or weed control at 200 ppm (Botrytis cinerea)
